Where “and” joins values, the source holds several entries; their conditions need not be identical. Identical values can stand only once. Like-named read-outs stand apart in the source and are kept apart here.
Key:
[1] = tested on: subjects with acute exacerbation of their schizophrenic illness; test: Randomized double blind, fixed-dose 6-week trial: efficacy on disease symptoms (PANSS); assay type: in vivo, human; settings: asenapine 5 mg twice a day sublingual, risperidone 3 mg twice daily, 6 weeks, compared with placebo
[2] = among atypical antipsychotics, literature review; cited from earlier work
[3] = All-Subjects-Treated Group, baseline to day 42 or final day of treatment

| Compound | efficacy in reducing the symptoms of schizophrenia [1] | number of subjects with greater than 10% weight gain from baseline (All-Subjects-Treated Group) | number of subjects (n) with clinically significant decrease of ≧7% from baseline in body weight [3] | number of subjects (n) with clinically significant increase of ≧7% from baseline in body weight [3] | weight gain associated with the drug [2] | also measured |
| --- | --- | --- | --- | --- | --- | --- |
| CN1C[C@@H]2c3ccccc3Oc3ccc(Cl)cc3[C@H]2C1 (relative stereo) [asenapine, trans-5-chloro-2-methyl-2,3,3a,12b-tetrahydro-1H-dibenz[2,3:6,7]oxepino[4,5-c]pyrrole] | significantly more effective than placebo | 1 | 0 | 2 | – | subjects with clinically significant decrease of ≧7% from baseline in body weight, % [3]: 0.0%; subjects with clinically significant weight gain (increase from baseline of ≧7%), % [3]: 4% and 4.3%; subjects with clinically significant weight gain (increase from baseline of ≧7%), % (All-Subjects-Treated Group, baseline to day 42 or final day of treatment, listed as Asenapine): 4.3%; increase in body weight from baseline (at end point, group result): 0.5%; other side effects (overall conclusion of the 6-week trial): minimal other side effects |
| Cc1cc2c(s1)Nc1ccccc1N=C2N1CCN(C)CC1 [olanzapine] | – | – | – | – | largest weight gains | – |
| OCCOCCN1CCN(C2=Nc3ccccc3Sc3ccccc32)CC1 [quetiapine] | – | – | – | – | smallest | – |
| Cc1nc2n(c(=O)c1CCN1CCC(c3noc4cc(F)ccc34)CC1)CCCC2 [risperidone, reference compound] | significantly more effective than placebo | 2 | 1 | 8 | modest weight changes that are not dose related | – |
| O=C1Cc2cc(CCN3CCN(c4nsc5ccccc45)CC3)c(Cl)cc2N1 [ziprasidone] | – | – | – | – | smallest | – |

Source: US20060128688A1, “Asenapine for the treatment of schizophrenia in a patient with overweight or predisposition for overweight” (priority 2003, published 2006)
